Experimental findings from patent publication US10150737B2, “Compounds for controlling arthropods” (priority 2013, dated 2018) are described below.

SMILES strings stand for the structures.

Data set [1] is described as follows: logP determination by HPLC on a reversed-phase column (C18). Particulars: for logP: HPLC, C18 reversed phase, acetonitrile/water with formic acid, EEC Directive 79/831 Annex V.A8; for logP^a): HPLC-MS method a); for log P: HPLC-MS. The data set is classed as physicochemical.
For another data set, the system named is Rhipicephalus sanguineus. As to the kind of experiment: Rhipicephalus sanguineus - in vitro contact tests with adult brown dog ticks. The data set is classed as in vivo. Particulars: after 48 h, ticks dead or moribund. The protocol: For the coating of the test tubes, 9 mg of active ingredient are first dissolved in 1 ml of acetone p.a. and then diluted to the desired concentration with acetone p.a. 250 μl of the solution are distributed homogeneously on the inner walls and base of a 25 ml test tube by turning and rocking on an orbital shaker (rocking rotation at 30 rpm for 2 h). With 900 ppm active ingredient solution and internal surface 44.7 cm^2, given homogeneous distribution, an area-based dose of 5 μg/cm^2 is achieved.
After the solvent has evaporated off, the tubes are populated with 5-10 adult dog ticks (Rhipicephalus sanguineus), sealed with a perforated plastic lid and incubated in a horizontal position in the dark at room temperature and ambient humidity. After 48 h, efficacy is determined. To this end, the ticks are knocked to the floor of the tube and incubated on a hotplate at 45-50° C. for not more than 5 min. Ticks which remain motionless on the floor or move in such an uncoordinated manner that they are unable to deliberately avoid the heat by climbing upwards are considered to be dead or moribund.
An efficacy of 100% means that all the ticks were dead or moribund. 0% efficacy means that none of the ticks had been harmed.

The subject of another data set is Boophilus microplus. Description: Boophilus microplus - injection test. Particulars: application rate 20 μg/animal, injection into engorged adult female ticks, after 7 days. The class given is in vivo. In a few lines: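 Active ingredient in DMSO, 1 μl injected into the abdomen of 5 engorged adult female ticks, then held in a climate-controlled room. Efficacy scored after 7 days from laying of fertile eggs, with non-fertile-looking eggs kept about 42 days for larval hatch; 100% means no fertile eggs.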

In data set [2] the test system is Ctenocephalides felis. As to the kind of experiment: Ctenocephalides felis - oral test. The class given is in vivo. Particulars: application rate 100 ppm in citrated cattle blood; after 2 days. Summed up: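 Compound in DMSO diluted into citrated cattle blood, fed through a parafilm membrane to about 20 unfed adult cat fleas. Kill in % scored after 2 days (100% = all dead).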

For the next data set, the system named is Lucilia cuprina. As to the kind of experiment: Lucilia cuprina test. The class given is in vivo. Particulars: application rate 100 ppm; L1 larvae; after 2 days. In a few lines:
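About 20 L1 larvae placed on minced horsemeat treated with compound, formulated in DMSO and diluted with water to test concentration. Kill in % scored after 2 days (100% = all larvae dead, 0% = none).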

The test system of the next data set is Musca domestica. As to the kind of experiment: Musca domestica test. The data set is classed as in vivo. Particulars: application rate 100 ppm; adult houseflies; after 2 days. Summed up:
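Feeding exposure: adult Musca domestica, 10 per vessel, given a sponge with sugar solution and test formulation at the desired concentration; % mortality determined on day 2.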

The test system of the next data set is Phaedon cochleariae. As to the kind of experiment: Phaedon cochleariae - spray test. Particulars: larvae on Chinese cabbage leaf discs, after 7 days. The class given is in vivo. Summed up: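 Chinese cabbage leaf discs sprayed with compound formulated in acetone/DMF and water containing 1000 ppm emulsifier; once dry, infested with mustard beetle larvae. Efficacy (% larvae killed) scored after 7 days.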

Another data set deals with Spodoptera frugiperda. Description: Spodoptera frugiperda - spray test. Particulars: caterpillars on maize leaf discs, after 7 days. The class given is in vivo. Summed up:
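Maize leaf discs sprayed with compound formulated in acetone/DMF and diluted in water containing 1000 ppm alkylaryl polyglycol ether emulsifier, then infested with armyworm caterpillars after drying. Efficacy scored after 7 days as % caterpillars killed (100% all, 0% none).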

Another data set deals with Tetranychus urticae. Description: Tetranychus urticae - spray test, OP-resistant. The data set is classed as in vivo. Particulars: bean leaf discs, after 6 days. Summed up:
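Compound dissolved in acetone/DMF, diluted with water containing 1000 ppm alkylaryl polyglycol ether emulsifier to test concentrations. Bean leaf discs infested with all stages of spider mites were sprayed; % kill determined after 6 days (100% = all mites dead, 0% = none).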

In data set [3] the test system is Ctenocephalides felis. As to the kind of experiment: Ctenocephalides felis - in vitro contact tests with adult cat fleas. The class given is in vivo. Particulars: application rate 5 μg/cm2 (=500 g/ha); after 48 h; fleas dead or moribund. In a few lines:
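Tubes coated with compound in acetone (250 μl of 900 ppm solution gives 5 μg/cm^2 on 44.7 cm^2), solvent evaporated, then 5–10 adult fleas added and kept horizontal at room temperature and ambient humidity. After 48 h, dead or moribund (motionless/uncoordinated) fleas scored as % efficacy.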

For another data set, the system named is Myzus persicae. Description: Myzus persicae - spray test. The data set is classed as in vivo. Particulars: Chinese cabbage leaf discs, after 6 days. In a few lines: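 Chinese cabbage leaf discs carrying all stages of Myzus persicae sprayed with compound in acetone/DMF diluted in water with 1000 ppm emulsifier. Efficacy (% aphids killed) assessed after 6 days.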

The mark [4] stands for this setting: reversed-phase column (C18), Table I-T3.

For orientation: logP means a log measure of how a compound divides between an organic and an aqueous phase. Read a low logP as a more hydrophilic compound. A word on the log P: it is the decadic logarithm of the partition coefficient of the neutral form, usually between octanol and water. The low end stands for a more hydrophilic compound, the high end for a more lipophilic compound. Regarding `Cc1cc(C(F)(C(F)(F)F)C(F)(F)F)cc(C(F)(F)F)c1-n1cc(-c2ccc(Cl)c(C(=S)NC3CC3)c2)cn1` [I-T3-161, 2-chloro-N-cyclopropyl-5-[1-[2-methyl-4-[1,2,2,2-tetrafluoro-1-(trifluoromethyl)ethyl]-6-(trifluoromethyl)phenyl]pyrazo-4-yl]benzenecarbothioamide], in data set [1], the logP amounted to 5.0. Moreover, in [1] (reversed-phase column (C18)), the “logP^a)” value amounted to 5.0. Besides, the “log P” value in [1] (setting [4]) is recorded as 5.0. Also, the efficacy with Rhipicephalus sanguineus (application rate 5 μg/cm2), in the data set with Phaedon cochleariae (application rate 100 g/ha), in the data set on Spodoptera frugiperda (application rate 100 g/ha) and in the data set with Tetranychus urticae (application rate 100 g/ha) was 100% throughout. Moreover, the “efficacy (laying of fertile eggs)” value with Boophilus microplus turned out to be 100%. The “efficacy (kill)” value with Ctenocephalides felis [2], in the data set with Lucilia cuprina and in the data set on Musca domestica was 100% each time.

Turning to `CCc1cc(C(F)(C(F)(F)F)C(F)(F)F)cc(C)c1-n1cc(-c2ccc(Cl)c(C(=O)NC3CSC3)c2)cn1` [I-T3-47], the “logP^a)” value in [1] and in data set [1] (setting [4]) was 5.0 each time. Besides, the efficacy in the data set on Rhipicephalus sanguineus (application rate 5 μg/cm2), in the data set with Phaedon cochleariae (application rate 500 g/ha), in the data set with Spodoptera frugiperda (application rate 500 g/ha) and in the data set with Tetranychus urticae (application rate 500 g/ha) was 100% each time. In addition, the “efficacy (laying of fertile eggs)” value in the data set on Boophilus microplus is 100%. The “efficacy (kill)” value with Ctenocephalides felis [2] and with Lucilia cuprina was 100% in each case.

Turning to `O=C(NC1CC1)c1cc(-c2cnn(-c3ccc(OC(F)(F)F)cc3Cl)c2)ccc1Cl` [I-T3-90], the “logP^a)” value in data set [1] was found to be 3.6. Besides, the “log P” value in [1] (setting [4]) stood at 3.6. In addition, the efficacy in the data set with Rhipicephalus sanguineus (application rate 5 μg/cm2) came out at 100%; with Phaedon cochleariae (application rate 500 g/ha), 100%; in the data set with Spodoptera frugiperda (application rate 500 g/ha), 100%; in the data set with Tetranychus urticae (application rate 500 g/ha) it was 90%. The “efficacy (laying of fertile eggs)” value in the data set with Boophilus microplus came out at 100%. The “efficacy (kill)” value was found to be 100% with Ctenocephalides felis [2], 100% in the data set on Lucilia cuprina and 90% in the data set on Musca domestica.

For the compound `Cc1cc(C(F)(C(F)(F)F)C(F)(F)F)cc(C)c1-c1cnn(-c2ccc(Cl)c(C(=O)NC3CC3)c2)c1` [I-T4-1, N-cyclopropyl-2-chloro-5-[4-[2,6-dimethyl-4-[1,2,2,2-tetrafluoro-1-(trifluoromethyl)ethyl]phenyl]pyrazol-1-yl]benzamide], the logP in data set [1] was found to be 4.7. The compound also displayed an efficacy with Rhipicephalus sanguineus (application rate 5 μg/cm2) of 100%. Moreover, the pest or weed control at 0.02 mg in the data set on Boophilus microplus (Rhipicephalus microplus, 168 h, read-out: efficacy (laying of fertile eggs)) came out at 100%.

`O=C(NC1CC1)c1cc(-c2cnn(-c3ccc(C(F)(C(F)(F)F)C(F)(F)F)cc3C(F)(F)F)c2)ccc1Cl` [I-T3-52]: the “logP^a)” value in data set [1] and in [1] (setting [4]) was 4.3 in each case. Moreover, the efficacy worked out at 100% in the data set with Rhipicephalus sanguineus (application rate 5 μg/cm2), 100% in the data set with Phaedon cochleariae (application rate 100 g/ha), 100% in the data set with Spodoptera frugiperda (application rate 100 g/ha) and 90% with Tetranychus urticae (application rate 100 g/ha). The “efficacy (laying of fertile eggs)” value in the data set with Boophilus microplus amounted to 100%. Also, the “efficacy (kill)” value in the data set on Ctenocephalides felis [2], with Lucilia cuprina and in the data set on Musca domestica was 100% throughout.

Compound `Cc1cc(C(F)(C(F)(F)F)C(F)(F)F)cc(C)c1-c1cnn(-c2ccc(Cl)c(C(=O)NC3(C#N)CC3)c2)c1` [I-T4-2] gave a logP in [1] of 4.6. Moreover, the efficacy came to 100% in the data set with Rhipicephalus sanguineus (application rate 5 μg/cm2); 100% with Ctenocephalides felis [3]; 90% with Myzus persicae (application rate 20 g/ha); 100% with Phaedon cochleariae (application rate 100 g/ha); 100% in the data set on Spodoptera frugiperda (application rate 100 g/ha); 100% in the data set with Tetranychus urticae (application rate 100 g/ha). Moreover, in the data set with Boophilus microplus, the “efficacy (laying of fertile eggs)” value was 100%. Besides, the “efficacy (kill)” value with Ctenocephalides felis [2], with Lucilia cuprina and in the data set with Musca domestica was 100% each time.

On to `COc1ncc(-c2cnn(-c3c(C)cc(C(F)(C(F)(F)F)C(F)(F)F)cc3C)c2)cc1C(=O)NC1(C#N)CC1` [I-T3-141], for which, in [1] (reversed-phase column (C18)), the “logP^a)” value is on record as 4.4. Also, the log partition coefficient (log P) in [1] (setting [4]) is 4.4. Further, the efficacy with Rhipicephalus sanguineus (application rate 1 μg/cm2), with Phaedon cochleariae (application rate 100 g/ha) and with Spodoptera frugiperda (application rate 100 g/ha) was 100% in each case. For the same compound, the “efficacy (laying of fertile eggs)” value with Boophilus microplus was determined as 100%. The “efficacy (kill)” value with Ctenocephalides felis [2], in the data set with Lucilia cuprina and in the data set on Musca domestica was 100% throughout.

For `O=C(NC1CC1)c1cc(-c2cnn(-c3c(Cl)cc(OC(F)(F)F)cc3Cl)c2)ccc1Cl` [I-T3-88], the “logP^a)” value in [1] and in data set [1] (setting [4]) was 3.6 each time. Moreover, the efficacy in the data set on Rhipicephalus sanguineus (application rate 5 μg/cm2) came out at 80%; in the data set with Ctenocephalides felis [3] it was 100%; in the data set with Myzus persicae (application rate 100 g/ha), 100%; in the data set on Phaedon cochleariae (application rate 100 g/ha), 100%; in the data set with Spodoptera frugiperda (application rate 100 g/ha), 100%; in the data set on Tetranychus urticae (application rate 100 g/ha) it was 100%. Further, in the data set with Boophilus microplus, the “efficacy (laying of fertile eggs)” value worked out at 100%. Moreover, the results for the “efficacy (kill)” value in the data set on Ctenocephalides felis [2], in the data set with Lucilia cuprina and in the data set on Musca domestica were 100%, 100% and 80%, respectively.

For the compound `COc1ncc(-c2cnn(-c3c(C)cc(C(F)(C(F)(F)F)C(F)(F)F)cc3C)c2)cc1C(=O)NC1CC1` [I-T3-143], the “logP^a)” value in data set [1] (reversed-phase column (C18)) is 4.6. Also, the “log P” value in [1] (setting [4]) turned out to be 4.6. Further, the efficacy in the data set with Rhipicephalus sanguineus (application rate 5 μg/cm2) is on record as 80%; in the data set on Ctenocephalides felis [3], 100%; in the data set with Phaedon cochleariae (application rate 100 g/ha), 100%; in the data set with Spodoptera frugiperda (application rate 100 g/ha) it was 100%. Moreover, the “efficacy (laying of fertile eggs)” value in the data set on Boophilus microplus came out at 100%. The “efficacy (kill)” value in the data set with Ctenocephalides felis [2], in the data set with Lucilia cuprina and in the data set on Musca domestica was 100% in each case.

Regarding `O=C(NC1CC1)c1cc(-c2cnn(-c3c(Cl)cc(C(F)(C(F)(F)F)C(F)(F)F)cc3OC(F)F)c2)cnc1Cl` [I-T3-196], the lipophilicity (log P) in data set [1] (setting [4]) is 3.9. In addition, the efficacy with Rhipicephalus sanguineus (application rate 5 μg/cm2) and in the data set with Ctenocephalides felis [3] was 100% in each case.

With `CCc1cc(C(F)(C(F)(F)F)C(F)(F)F)ccc1-n1cc(-c2ccc(Cl)c(C(=O)NC3(C#N)CC3)c2)cn1` [I-T3-38], the “logP^a)” value in data set [1] and in data set [1] (setting [4]) was 4.5 each time. For the same compound, the efficacy is recorded as 80% with Rhipicephalus sanguineus (application rate 5 μg/cm2); 90% in the data set with Myzus persicae (application rate 100 g/ha); 100% in the data set on Phaedon cochleariae (application rate 100 g/ha); 100% in the data set with Spodoptera frugiperda (application rate 100 g/ha); 100% with Tetranychus urticae (application rate 100 g/ha). The “efficacy (laying of fertile eggs)” value in the data set with Boophilus microplus is reported as 100%. Also, the “efficacy (kill)” value in the data set with Ctenocephalides felis [2], in the data set on Lucilia cuprina and in the data set on Musca domestica was 100% throughout.

For the compound `O=C(NC1CC1)c1cc(-c2cnn(-c3c(Cl)cc(C(F)(C(F)(F)F)C(F)(F)F)cc3OC(F)(F)F)c2)cnc1Cl` [I-T3-189], the “log P” value in data set [1] (setting [4]) was 4.3. Further, the efficacy in the data set on Rhipicephalus sanguineus (application rate 5 μg/cm2), in the data set on Ctenocephalides felis [3], in the data set with Myzus persicae (application rate 100 g/ha), with Phaedon cochleariae (application rate 100 g/ha), with Spodoptera frugiperda (application rate 100 g/ha) and in the data set with Tetranychus urticae (application rate 100 g/ha) was 100% each time. The “efficacy (kill)” value in the data set on Ctenocephalides felis [2], in the data set on Lucilia cuprina and with Musca domestica was 100% in each case.
